One test has as its system rodent GSK3β homologs. The following applies: cited from earlier work.
The test system of test [1] is co-cultures of MNs with adult-derived myoblasts (hMA). The test can be described thus: myasthenia gravis model: light-induced muscle contraction in co-cultures. In kind it is cell-based, human. The following applies: PYR 10 μM on day 3; cultures treated with MG IgG (#1 & 2 combined) and complement; n=8. The text has this:
Next we sought to address whether the functional neuromuscular co-cultures were suitable to model a classic human neuromuscular disease. Myasthenia gravis (MG) (Toyka et al., 1977; Verschuuren et al., 2013) is caused by the emergence of autoantibodies against proteins in the neuromuscular junction (e.g. the acetylcholine receptor, AChR). Binding of the pathogenic antibody to AChR activates the complement cascade, resulting in destruction of the neuromuscular endplate (Sahashi et al., 1980), which ultimately causes progressive muscle weakness in patients. We therefore quantified light-induced muscle contractions in functional co-cultures of MNs with adult-derived myoblasts (hMA) before (FIG. 4A, D) and after the incubation with IgG fractions (200 nM total IgG) from two MG patients with clearly elevated AChR antibody titers (#1 and #2). Sandoglobulin (SG) polyvalent IgG served as control. […] Next, we assessed if the myasthenic phenotype was reversible after washout of MG IgG and complement, mimicking plasmapheresis therapy (Gold et al., 2008). […]
Maturing co-cultures were observed under 10× brightfield illumination while intermittently opening the shutter for fluorescent light (470 nm, 2mW/mm^2, approx. 300 ms pulse). […] For the quantification of movement multiple representative high contrast regions were automatically traced (MetaMorph Software). […]

The subject of test [2] is myofibers in MN co-cultures with adult muscle (hMA). The test can be described thus: myasthenia gravis model: calcium imaging. In kind it is cell-based, human. Conditions: MG#1 IgG and complement cultures. Here is the method: To further characterize the myasthenic phenotype we performed calcium imaging experiments. […] Therefore cultures were pretreated with control and MG#1 IgG and human complement for 2 days. Calcium imaging was performed in regions with similar amounts of muscle fibers and dense innervation (FIG. 4K, L). […] In addition, the percentage of reactive fibers was reduced in cultures treated with MG#1 IgG and complement compared to controls (FIG. 4N, CTRL 78% vs. MG 32%, two-tailed unpaired t test, p<0.001, t=4.79). […] Finally we sought to confirm the complement attack on the neuromuscular junction. For this purpose, cultures treated with MG#1 IgG and human complement as well as cultures treated with CTRL IgG and human complement for 24 h were stained with an antibody recognizing the human complement fragment C3c. […] (FIG. 4O, P).
(§1) Myotubes or co-cultures on glass coverslips were incubated with the ratiometric calcium dye Fura-2 and imaged under continuous perfusion in normal Tyrode's solution. Myotubes were stimulated by acetylcholine. Co-cultures were illuminated for optogenetic stimulation for 10 ms at 470 nm (4 mW/mm2) every 5 s.
Serum (containing complement) from 5 healthy donors was pooled and added to the media where indicated (2% v/v). […]

The test system of test [3] is co-cultures of ChR2-expressing hESC-derived spinal motorneurons with human adult (hMA) and fetal (hMF) myofibers. The test can be described thus: light-induced muscle twitches in neuromuscular co-cultures. In kind it is cell-based. The following applies: 2 μM, optogenetic stimulation 470 nm, all tested cultures. Here is the method:
To establish the neuromuscular co-culture, we used the purified ChR2-expressing spinal motorneurons (day 20-25) and plated them onto pre-differentiated skeletal myofibers (day 5-10). After plating, hESC-derived spinal MN cell bodies mostly remained within the neuronal clusters but extended axons across the adult and fetal muscle (up to 2 mm within the first week, FIG. 3A, E). Co-cultures were tested for the establishment of neuromuscular connectivity in weekly intervals. For this purpose the cultures were observed under bright field illumination and intermittently stimulated with blue light pulses. Six to eight weeks after initiation of the co-culture, the elongated cylindrical myoblast-derived muscle fibers remained morphologically intact and started to contract in response optogenetic stimulation (470 nm, 0.2 Hz, 300 ms pulse width). FIGS. 3B, F show mature co-cultures with both muscle types. FIG. 3C, G show the quantification of muscle twitches of individual fibers from such cultures. The lower panels show long term experiments over 8.5 min (FIG. 3C at 0.2 Hz, FIG. 3G at 0.1 Hz). […]
Maturing co-cultures were observed under 10× brightfield illumination while intermittently opening the shutter for fluorescent light (470 nm, 2mW/mm^2, approx. 300 ms pulse). […] For the quantification of movement multiple representative high contrast regions were automatically traced (MetaMorph Software).

The test system of test [4] is myofibers in functional neuromuscular co-cultures. The test can be described thus: calcium imaging in neuromuscular co-cultures under optogenetic stimulation. In kind it is cell-based, human. The following applies: 470 nm optogenetic stimulation, Fura2; 6/6 cultures. As to the method:
(§2) We next characterized key physiologic parameters in the functional neuromuscular cultures. Matured co-cultures were incubated with the calcium dye Fura2 and mounted into an imaging chamber for continuous perfusion. […] The lower panel of FIG. 3J confirms long-term stability of neuro-muscular excitability in a calcium imaging experiment over 45 minutes. In a separate study, skeletal myotubes (n=5), identified by their cylindrical and striated appearance under phase contrast microscopy and by their ability to undergo light-induced twitching were selected for intracellular recordings (FIG. 3K). Light-responsive myotubes were impaled with sharp electrodes and muscle APs were recorded during 447 nm optogenetic stimulation at frequencies from 0.2 to 2 Hz. Spike fidelity was 100% at 0.2 Hz, 93.3±6.7% at 0.5 Hz, 75±15.0% at 1 Hz and 80±10.0% at 2 Hz. […] To address the stability of neuromuscular connectivity over the course of several days and weeks, contractile regions (n=7) were assessed every 5 days.
as §1

In test [5] the test system is light-responsive skeletal myotubes in neuromuscular co-cultures. The test can be described thus: sharp electrode recording of light-induced myofiber action potentials. In kind it is cell-based, human. The following applies: 2 μM; 447 nm optogenetic stimulation 0.2 to 2 Hz. As to the method: as §2
On matured EYFP+ MNs whole-cell current clamp recordings were performed at room temperature. Light-evoked APs were elicited using a 447 nm diode laser (OEM Laser) with light pulses of 5 ms at approximately 1 mW/mm2. Myotubes contracting in response to light stimulation were impaled with a sharp electrode for intracellular recordings.

`Cc1c[nH]c(-c2cnc(NCCNc3ccc(C#N)cn3)nc2-c2ccc(Cl)cc2Cl)n1` [CHIR99021, 6-(2-(4-(2,4-dichlorophenyl)-5-(4-methyl-1H-imidazol-2-yl)pyrimidin-2-ylamino)ethylamino)nicotinonitrile]: in the test with rodent GSK3β homologs, the “IC50 values against rodent GSK3β homologs” value is recorded as “nanomolar”.

Turning to `CN(C)C(=O)Oc1ccc[n+](C)c1` [pyridostigmine], the “change of movement after pyridostigmine in MG cultures” value in test [1] is on record as “+22%”. Besides, the “percentage of reactive fibers after PYR in MG cultures” value in test [2] is reported as “tendency towards a higher percentage of reactive fibers, which did not reach significance”. The “light-induced calcium spike after PYR in MG cultures” value in test [2] (n=8) is recorded as “small but significant increase”.

For `CC(=O)O[C@H]1C[C@@H]2CC[C@@H]3[C@H](CC[C@@]4(C)[C@H]3C[C@H]([N+]3(C)CCCCC3)[C@@H]4OC(C)=O)[C@@]2(C)C[C@@H]1N1CCCCC1` [vecuronium], the “light induced muscle twitches” value in test [3] was “completely blocked”; in test [3] (listed as Vecuronium), “blocks light-evoked contractility”. For the same compound, in test [4], the “light-evoked calcium spikes in myofibers” value is given as “could be blocked”. Moreover, the “light-induced APs in myofibers” value in test [5] was “completely blocked light-induced APs in myofibers in a reversible manner”.

The values are drawn from patent publication US20180231524A1, “IN VITRO METHODS OF IDENTIFYING MODULATORS OF NEUROMUSCULAR JUNCTION ACTIVITY” (MEMORIAL SLOAN-KETTERING CANCER CENTER, priority 2015, published 2018).
